Target: T1, EfCdaA (Enterococcus faecium, UniProt Q3Y0C9)
T1 construct: gene dacA; N-terminally truncated soluble DAC domain; codon-optimized synthetic DNA, pET-28a, E. coli Rosetta (DE3); tag cut with PreScission
T1 sequence (Q3Y0C9 121-269): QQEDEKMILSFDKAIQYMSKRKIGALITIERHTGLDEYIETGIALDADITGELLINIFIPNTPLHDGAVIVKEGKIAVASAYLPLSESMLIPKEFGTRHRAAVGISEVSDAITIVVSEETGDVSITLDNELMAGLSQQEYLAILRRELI
Assay: ITC, […] binding model
Settings: 25 C, pH 7.5, 20 mM Tris-HCl, 300 mM NaCl, 5% DMSO, 10 mM MgCl2

With `Nc1ncnc2c1ncn2[C@@H]1O[C@H](COP(=O)(O)OP(=O)(O)OP(=O)(O)O)[C@@H](O)[C@H]1O` [ATP] the Kd was 237 µM.

With `CC(C)OC(=O)OCOP(=O)(CO[C@H](C)Cn1cnc2c(N)ncnc21)OCOC(=O)OC(C)C` [tenofovir disoproxil] the Kd was 7.91 µM.
